Consider eight compounds from patent publication US20120323164A1, “PHOTODYNAMIC THERAPY WITH PHTHALOCYANINES AND RADICAL SOURCES” (Case Western Reserve University, priority 2011, published 2012).

“And” between values parts separate entries of the source, which are not always exact repeats. Identical values can stand only once.

The nature of series [1]: Qualitative solubility in organic solvents.
Series [2] in a line: Photodecomposition of phthalocyanines in toluene under white light, no added radical source. Particulars: for decomp (%): toluene ~9 μM, no added alkene, white light 1.2 kJ/s/m^2.
Procedure: The distance between the cuvette face and the lamp filament was 30 cm. Determination of the beam intensity at the cuvette face was made with a powermeter (Powermax, pm10, Coherent, Santa Clara, Calif.). The beam intensity was checked before each measurement.
Solutions for the photodecomposition experiments were prepared as follows. […] This assumption was justified on the basis that all of the silicon phthalocyanines studied contained simple, unsubstituted phthalocyanine rings. The extinction coefficients of the aluminum phthalocyanines were assumed to be 2.3×10^5, the extinction coefficient of AlPcOSi(CH3)2(CH2)3N(CH3)2, Pc 1.
The absorbance of the Q band of the solution, A, was determined with a spectrophotometer (Lambda 25, Perkin Elmer, Shelton, Conn.; fused silica cuvettes, 1.00 cm, 3.5 mL, Fisher Scientific). From A, ε, the cuvette path length, b, and Beer's law, the concentration of the solution, c, was determined. The solution was then diluted with toluene to a concentration of 9.2 μM. To verify that this was the concentration of the solution, its absorbance was measured again.
In a typical determination, the solution (3.00 mL) was placed in a cuvette (1.00 cm, 3.5 mL, Fisher Scientific, Pittsburgh, Pa.) and its absorbance was measured with the spectrometer (Lambda 25) before irradiation and at 2, 4, 6 and 8 h.
where A0 is the absorbance of the solution at time 0, and At is the absorbance at time t.
Setting [3] is: time 2 h, radiation 86 kJ/mol × 10^−6.
Where [4] appears, read: time 4 h, radiation 172 kJ/mol × 10^−6.
Where [5] appears, read: time 6 h, radiation 258 kJ/mol × 10^−6.
Setting [6] is: time 8 h, radiation 344 kJ/mol × 10^−6.

Turning to `CCCCC/C=C\C/C=C\C/C=C\C/C=C\CCCC(=O)O.CCCCC/C=C\C/C=C\C/C=C\C/C=C\CCCC(=O)O.CN(C)CCC[Si](C)(C)O[Si]1(O[Si](C)(C)CCCN(C)C)n2c3c4ccccc4c2N=C2N=C(N=c4c5ccccc5c(n41)=NC1=NC(=N3)c3ccccc31)c1ccccc12` [Pc 291, SiPc[OSi(CH3)2(CH2)3NH(CH3)2]2^2+ [OC(O)(CH2)2(CH2CH═CH)4(CH2)4CH3]2], in series [1], the “solubility (in words)” value is “soluble in ethanol, CH2Cl2 and dimethylformamide, moderately soluble in toluene, and insoluble in hexanes”. In addition, the “decomp (%)” value in series [2] (time 0 h) was 0%; in series [2] (setting [3]) it was 18%; in series [2] (setting [4]) it was 19%; in series [2] (setting [5]), 20%; in series [2] (setting [6]) it was 20%.

Consider `CC/C=C\C/C=C\C/C=C\C/C=C\C/C=C\C/C=C\CCC(=O)O.CC/C=C\C/C=C\C/C=C\C/C=C\C/C=C\C/C=C\CCC(=O)O.CN(C)CCC[Si](C)(C)O[Si]1(O[Si](C)(C)CCCN(C)C)n2c3c4ccccc4c2N=C2N=C(N=c4c5ccccc5c(n41)=NC1=NC(=N3)c3ccccc31)c1ccccc12` [Pc 292, SiPc[OSi(CH3)2(CH2)3NH(CH3)2]2^2+ [OC(O)CH2(CH2CH═CH)6CH2CH3]2^−], for which the “solubility (in words)” value in series [1] is “soluble in ethanol, CH2Cl2 and dimethylformamide, moderately soluble in toluene, and insoluble in hexanes”. Besides, the “decomp (%)” value in series [2] (time 0 h) was found to be 0%; in series [2] (setting [3]), 20%; in series [2] (setting [4]), 21%; in series [2] (setting [5]), 22%; in series [2] (setting [6]), 22%.

Consider `CCCCCCCC/C=C\CCCCCCCC(=O)O[Si]1(OC(=O)CCCCCCC/C=C\CCCCCCCC)n2c3c4ccccc4c2N=C2N=C(N=c4c5ccccc5c(n41)=NC1=NC(=N3)c3ccccc31)c1ccccc12` [Pc 295, SiPc[OC(O)(CH2)7CH═CH(CH2)7CH3]2], for which, in series [1], the “solubility (in words)” value was “soluble in CH2Cl2, dimethylformamide, pyridine and toluene, slightly soluble in hexanes, and insoluble in methanol”. In addition, the “decomp (%)” value in series [2] (time 0 h) was found to be 0%; in series [2] (setting [3]), 2%; in series [2] (setting [4]), 3%; in series [2] (setting [5]), 3%; in series [2] (setting [6]), 4%.

Consider SiPc[O(CH2)4CH3]2 [Pc 307], for which the “solubility (in words)” value in series [1] was “soluble in CH2Cl2, dimethylformamide, pyridine and toluene, and insoluble in hexanes and methanol”. The “stability in the dark” value in series [2] is “stable in the dark”. Also, the “decomp (%)” value is 0% in series [2] (time 0 h); 23% in series [2] (setting [3]); 55% in series [2] (setting [4]); 80% in series [2] (setting [5]); 90% in series [2] (setting [6]).

Regarding “SiPc[O(CH2CH═C(CH3)CH2)2CH2CH═C(CH3)2]2 [Pc 303]”, the “solubility (in words)” value in series [1] was “soluble in CH2Cl2, dimethylformamide, pyridine and toluene, and insoluble in hexanes and methanol”. Besides, the “stability in the dark” value in series [2] is listed as “stable in the dark”. For the same compound, the “decomp (%)” value in series [2] (time 0 h) is 0%; in series [2] (setting [3]), 1%; in series [2] (setting [4]) it was 2%; in series [2] (setting [5]) it was 2%; in series [2] (setting [6]) it was 2%.

On to “SiPc[OC(O)(CH2)2(CH2CH═CH)4(CH2)4CH3]2 [Pc 299]”, for which the “solubility (in words)” value in series [1] is “soluble in CH2Cl2, dimethylformamide, pyridine and toluene, slightly soluble in hexanes, and insoluble in methanol”. Further, the “decomp (%)” value was 0% in series [2] (time 0 h); 7% and 12% in series [2] (setting [3]); 12% and 21% in series [2] (setting [4]); 14% and 27% in series [2] (setting [5]); 17% and 33% in series [2] (setting [6]).

Consider “SiPc[OC(O)(CH2)6(CH2CH═CH)2(CH2)4CH3]2 [Pc 296]”, for which the “solubility (in words)” value in series [1] was “soluble in CH2Cl2, dimethylformamide, pyridine and toluene, slightly soluble in hexanes, and insoluble in methanol”. In addition, the “decomp (%)” value in series [2] (time 0 h) is 0%; in series [2] (setting [3]), 2%; in series [2] (setting [4]) it was 3%; in series [2] (setting [5]), 4%; in series [2] (setting [6]) it was 5%.

For the compound “SiPc[OC(O)CH2(CH2CH═CH)6CH2CH3]2 [Pc 300]”, the “solubility (in words)” value in series [1] is “soluble in CH2Cl2, dimethylformamide, pyridine and toluene, slightly soluble in hexanes, and insoluble in methanol”. Besides, the “decomp (%)” value came to 0% in series [2] (time 0 h); 16% in series [2] (setting [3]); 34% in series [2] (setting [4]); 46% in series [2] (setting [5]); 56% in series [2] (setting [6]).
